Measurements as given in paper PMC8372460 (European Journal of Medicinal Chemistry, 2021).
Where two headings read alike, the source gives them in different places.

Experiments:
[1] = target: SARS-CoV-2 M^pro (Severe acute respiratory syndrome coronavirus 2, UniProt P0DTD1); format: biochemical
[2] = tested on: human normal fibroblast HFF-1 cells; assay: In vitro cytotoxicity evaluation, MTT assay; format: cell-based; conditions: read-out: IC50 values towards HFF-1 cells, 48 h
[3] = tested on: normal peripheral blood mononuclear cells; conditions: cited from earlier work
[4] = tested on: Vesicular Stomatitis Virus; conditions: cited from earlier work
[5] = tested on: latent HIV-1; conditions: bcl-2-transduced primary CD4+ T cell model; cited from earlier work
[6] = concentrations ranging from 100 μg/mL to 10 ng/mL; cited from earlier work
[7] = tested on: Vero E6 cells; conditions: under tested concentrations
[8] = Balb/C mice, 100 mg/kg, p.o., 10 times in 20 days
[9] = patients with hypoprothrombinemia, doses from 1 to 200 mg; cited from earlier work

## COc1cc(C)cc2c1C(=O)C=CC2=O [Compound 22, 7-methyl juglone methyl ether]
[1]
  inhibitory effect towards M^pro (in words): did not show any inhibitory effects

## O=C1C=C(O)C(=O)c2ccccc21 [Compound 7, 2-hydroxy-1,4-naphthoquione]
[1]; 10 μM
  inhibitory effect towards M^pro (in words): did not exhibit any detectable inhibition

## CC1=CC(=O)c2c(O)cccc2C1=O [Compound 17, Plumbagin]
[1]; 10 μM
  inhibitory effect towards M^pro (in words): inactive

## Cc1cc(O)c2c(c1)C(=O)C=CC2=O [Compound 16, 7-Methyl juglone]
[1]
  Mpro inhibition rate at different conc. (%) 0.1 μM: 21.7%
  Mpro inhibition rate at different conc. (%) 1 μM: 99.6%
  inhibitory effect towards M^pro (in words): completely loss of the hydrolytic efficacy
[2]
  IC50: < 5 µM

## O=C1C=CC(=O)c2c(O)cccc21 [Compound 2, juglone]
[1]; 1 μM
  inhibitory effect towards M^pro (in words): completely inactivated the main protease
[1]; 10 μM
  inhibitory effect towards M^pro (in words): completely loss of the hydrolytic efficacy
[2]
  IC50: < 5 µM
[3]
  IC50, cytotoxicity against normal peripheral blood mononuclear cells: more than 5 μg/mL
[4]
  activity against Vesicular Stomatitis Virus: active
[5]
  reactivation of latent HIV-1: potently reactivate latent HIV-1

## CC(C)=CC[C@@H](O)C1=CC(=O)c2c(O)ccc(O)c2C1=O [Compound 1, shikonin, reference compound]
[1]; 10 μM
  inhibitory effect towards M^pro (in words): moderate inhibitory effects
[6]
  cytotoxic effects in vitro: significant cytotoxic effects

## COc1cccc2c1C(=O)C(C(C)=O)=CC2=O [Compound 15, 2-acetyl-8-methoxy-1,4-naphthoquinone]
[7]
  toxicity towards host Vero E6 cells (in words): non-toxic
[8]
  animal deaths: no animal deaths
  body weight change compared with control animals: minor body weight loss
[8]; every other day
  toxicity symptoms (reduced activity, hypothermia, body shivering): did not show any obvious toxicity symptoms

## CC1=CC(=O)c2ccccc2C1=O [Compound 3, 2-Methyl-1,4-naphthoquinone, reference compound]
[1]; 10 μM
  inhibitory effect towards M^pro (in words): inactive
[9]
  toxic effects in patients: no toxic effects were observed
